Assay results from article PMC10641817, “Ligand Sulfur Oxidation State Progressively Alters Galectin-3-Ligand Complex Conformations To Induce Affinity-Influencing Hydrogen Bonds” (Journal of Medicinal Chemistry, 2023).
Where “and” joins values, the source holds several entries; their conditions need not be identical. Equal values may be shown once. Blank lines part the entries; values can stand above or below the compound they belong to.

Assays:
[1] = solubility in attempts at crystallographic structural analyses; type: physicochemical; conditions: for crystallography with galectin-3C
Galectin-3 Wild-Type = Galectin-3 Wild-Type (Homo sapiens, UniProt P17931); assay: competitive fluorescence polarization assay, galectin-3 wild-type; type: binding
Experimental: (§1) Fluorescence polarization experiments were carried out either with a POLARStar plate reader and FLUOstar Galaxy software or with a PheraStarFS plate reader and PHERAstar Mars version 2.10 R3 software (BMG, Offenburg, Germany). The dissociation constant (Kd) values were determined in PBS as described earlier.[13],[18] Compounds were dissolved in neat DMSO at 20 mM and diluted in PBS to 3–6 different concentrations to be tested in duplicate.

galectin-3 R144S = galectin-3 R144S (Homo sapiens, UniProt P17931, R144S); assay: competitive fluorescence polarization assay, galectin-3 R144S mutant; type: binding
Experimental: as §1, with “duplicate. Average Kd values and SEMs were calculated from 2 to 8 single-triple point measurements showing between 20 and 80% inhibition.” for “duplicate.”

galectin-3 R144K = galectin-3 R144K (Homo sapiens, UniProt P17931, R144K); assay: competitive fluorescence polarization assay, galectin-3 R144K mutant; type: binding
Experimental: as §1, with “duplicate. Average Kd values and SEMs were calculated from 2 to 8 single-triple point measurements showing between 20 and 80% inhibition.” for “duplicate.”

[2] = target: T1, galectin-3C (the C-terminal domain of galectin-3) (Homo sapiens, UniProt P17931); assay: isothermal titration calorimetry (ITC) with galectin-3C; type: binding; conditions: 301 K
T1 construct: galectin-3C (the C-terminal domain of galectin-3)
Experimental: Stock solutions of the ligands were prepared in a buffer at 5 mM. The ligands were diluted with buffer to concentrations between 2 and 3 mM. […] All thermograms were integrated using NITPIC, the titration curves were fitted using SEDPHAT with error estimates using the automatic confidence interval search with projection method, and all figures were made in GUSSI.

T1 sequence (P17931 118-248 limits assumed): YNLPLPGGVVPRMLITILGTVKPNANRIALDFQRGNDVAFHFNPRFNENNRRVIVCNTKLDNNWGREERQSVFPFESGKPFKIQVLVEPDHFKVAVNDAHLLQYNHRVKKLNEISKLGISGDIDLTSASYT
Sequence of Galectin-3 Wild-Type (P17931 whole entry): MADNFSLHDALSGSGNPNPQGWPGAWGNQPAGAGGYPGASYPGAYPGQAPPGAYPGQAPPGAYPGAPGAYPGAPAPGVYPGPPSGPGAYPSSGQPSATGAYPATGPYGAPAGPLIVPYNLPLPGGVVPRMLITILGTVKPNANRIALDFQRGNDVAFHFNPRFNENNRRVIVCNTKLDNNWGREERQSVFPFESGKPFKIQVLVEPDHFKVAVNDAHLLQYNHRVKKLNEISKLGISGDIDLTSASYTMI
Sequence of galectin-3 R144S (P17931 whole entry R144S): as the sequence (P17931 whole entry) above, with R144S counted along it
Sequence of galectin-3 R144K (P17931 whole entry R144K): as the sequence (P17931 whole entry) above, with R144K counted along it

solubility [1]: insufficient solubility
Compound: Cc1ccc(S[C@@H]2O[C@H](CO)[C@H](O)[C@H](n3cc(Sc4ccccc4)nn3)[C@H]2O)cc1 [4a, p-Methylphenyl 3-deoxy-3-[4-phenylsulfane-1H-1,2,3-triazol-1-yl] 1-thio-β-D-galactopyranoside]

Kd (Galectin-3 Wild-Type; Table 1, galectin-3 wild-type, fluorescence polarization in PBS): > 600 µM
solubility [1]: insufficient solubility
Compound: Cc1ccc(S[C@@H]2O[C@H](CO)[C@H](O)[C@H](n3cc([S+]([O-])c4ccccc4)nn3)[C@H]2O)cc1 (stereo partly drawn) [4b, p-Methylphenyl 3-deoxy-3-[4-phenylsulfinyl-1H-1,2,3-triazole-1yl] 1-thio-β-D-galactopyranoside]
inhibition at the highest tested concentration (Galectin-3 Wild-Type; 2 mM, fluorescence polarization, galectin-3): b Weak inhibition at the highest tested concentration of 4b (2 mM) did not allow for accurate determination of the Kd value.

Kd (galectin-3 R144S): 600 ± 80 µM
Kd (galectin-3 R144K): 250 ± 6 µM
solubility [1]: insufficient solubility
Compound: Cc1ccc(S[C@@H]2O[C@H](CO)[C@H](O)[C@H](n3cc(S(=O)(=O)c4ccccc4)nn3)[C@H]2O)cc1 [4c, p-Methylphenyl 3-deoxy-3-[4-phenylsulfonyl-1H-1,2,3-triazole-1yl] 1-thio-β-D-galactopyranoside]

Kd [2]: 94.2 µM and 94 µM
Compound: [O-][S+](c1ccccc1)c1cn([C@H]2[C@@H](O)[C@@H](CO)O[C@@H](S[C@@H]3O[C@H](CO)[C@@H](O)[C@H](O)[C@H]3O)[C@@H]2O)nn1 (stereo partly drawn) [6b, 3′-Deoxy-3′-[4-phenylsulfinyl-1H-1,2,3-triazol-1-yl] -β-D-galactopyranosyl-1-thio-β-D-glucopyranoside]
